Source: the NIST ThermoML archive (doi:10.1021/je1009224)

Tests used:
[1] = 101.3 kPa, Liquid
[2] = xn = mol fraction of the nth substance listed; conditions: 101 kPa, Liquid

CCCCCC[n+]1ccn(C)c1.O=S(=O)([N-]S(=O)(=O)C(F)(F)F)C(F)(F)F
[1]
Conditions | viscosity [mPa·s]
283.1 K | 136
298.15 K | 70.1
323.15 K | 25.8
348.15 K | 13.5

CCCCCC[n+]1ccn(C)c1.O=S(=O)([N-]S(=O)(=O)C(F)(F)F)C(F)(F)F + C=CCCCCCC
[2], x2 = 0
Conditions | viscosity [mPa·s]
283.1 K | 136
298.15 K | 70.1
323.15 K | 25.8
348.15 K | 13.5

C=CCCCCCC [oct-1-ene]
[1]
Conditions | viscosity [mPa·s]
283.1 K | 0.56
298.15 K | 0.47
323.15 K | 0.37
348.15 K | 0.3

C=CCCCCCC [oct-1-ene] + CCCCCC[n+]1ccn(C)c1.O=S(=O)([N-]S(=O)(=O)C(F)(F)F)C(F)(F)F
viscosity [mPa·s], [2]
Conditions | 283.1 K | 298.15 K | 323.15 K | 348.15 K
x1 = 0.05 | 127 | 66.6 | 24.4 | 13
x1 = 0.1 | 106 | 56.2 | 21.6 | 11.6
x1 = 0.15 | 93 | 51.2 | 20.5 | 11.4
x1 = 1 | 0.56 | 0.47 | 0.37 | 0.3
